Measured values published in patent US20080027113A1, “Methods of Using and Compositions Comprising Immunomodulatory Compounds for Treatment and Management of Macular Degeneration” (priority 2003, published 2008).

Key:
TNF-α production [1] = experiment: Inhibition of TNF-α production following LPS-stimulation of human whole blood; assay type: cell-based; conditions: LPS-stimulated, read-out: IC50 for inhibiting production of TNF-α following LPS-stimulation of human whole blood
[2] = tested on: patients with macular degeneration; experiment: Clinical study in patients with macular degeneration, adjuvant to photodynamic therapy with verteporfin; assay type: in vivo, human; conditions: about 10 mg/day for 20 weeks as adjuvant to verteporfin photodynamic therapy
Experimental: Immunomodulatory compounds are administered in an amount of about 0.1 to about 25 mg per day to patients with macular degeneration. In a specific embodiment, clinical studies are performed with forty patients with macular degeneration, who are divided into two groups. The first group receives conventional treatment for closing the leaking choroidal vessels (characteristic of this disease) by photodynamic therapy with verteporfin. Ophthalmol 1999 (117): 1329-1345.
Progressive visual loss follows which requires the photodynamic therapy to be repeated.

IL6 production = experiment: LPS-stimulated production of IL6 by PBMC; assay type: cell-based; conditions: result in words
IL10 production = experiment: Production of anti-inflammatory cytokine IL10 by PBMC; assay type: cell-based; conditions: result in words
TNF-α production [3] = experiment: Inhibition of TNF-α production following LPS-stimulation of human PBMC; assay type: cell-based; conditions: for inhibition of LPS-stimulated production of TNF-α by PBMC: result in words; for IC50: human PBMC, LPS-stimulated, read-out: IC50 for inhibiting production of TNF-α following LPS-stimulation of PBMC
IL1β production = experiment: LPS-stimulated production of IL1β by PBMC; conditions: result in words

Compound | IC50 (TNF-α production [1]) | effect on neovascular cascade / duration of photodynamic therapy effect [2] | inhibition of LPS-stimulated production of IL6 by PBMC (IL6 production) | production of the anti-inflammatory cytokine IL10 (IL10 production) | inhibition of LPS-stimulated production of TNF-α by PBMC (TNF-α production [3]) | IC50 (TNF-α production [3]) | inhibition of LPS-stimulated production of IL1β by PBMC (IL1β production)
Nc1cccc2c1CN(C1CCC(=O)NC1=O)C2=O (stereo not shown) | ~480 nM | sufficiently hindered | dose-dependent inhibition | increased production | dose-dependent inhibition | ~100 nM | dose-dependent inhibition
Nc1cccc2c1C(=O)N(C1CCC(=O)NC1=O)C2=O (stereo not shown) | ~25 nM | – | dose-dependent inhibition | increased production | dose-dependent inhibition | ~24 nM | dose-dependent inhibition
